Data reported in patent publication US20240197816A1, “COMPOSITION AND METHOD FOR PROLONG SURVIVAL OF TRANSPLANT AND RECIPIENT” (NovMetaPharma Co., Ltd., priority 2022, published 2024).

How the values were obtained:
[1] = tested on: transplanted kidney (F344 to LEWIS rats); assay: Weekly ultrasound (color Doppler) of blood flow to the transplanted kidney; assay type: in vivo, rat; conditions: CHP treatment group, ultrasound once a week
Procedure: In the control group, CHP administration group (F344 to LEWIS rats), and inbred (LEWIS to LEWIS rats) kidney transplantation model, ultrasound was performed once a week to check the smooth flow of blood to the transplanted kidney.

[2] = tested on: transplanted kidney (F344 to LEWIS rats); assay: Graft kidney tissue findings (histology); assay type: in vivo, rat; conditions: TPL+CHP group; graft tissue on the 45th day
From the text: These phenomena are believed to be an effect of CHP that can suppress the acute rejection reaction that occurs within days after transplantation. In FIG. 5, graft kidney tissue findings on the 7th day of rejection in the left […] control group (Syngenic TPL) and on the 45th day in the CHP treated group (TPL+CHP).

[3] = tested on: transplanted kidney (F344 to LEWIS rats); assay: Evaluation of graft function (BUN, serum creatinine) after kidney transplantation; assay type: in vivo, rat
From the text: Individual data points represent the following groups: the syngeneic transplant recipients (Syngenic; n=3), transplant recipients without CHP administration (TPL; n=5), and the CHP-treated transplant recipients (TPL+CHP; n=5). […] This significant improvement in key renal function indicators highlights a promising advancement in post-transplant care, reducing the reliance on immunosuppressive therapies, and prolonging recipient survival and enhancing graft survival.

[4] = tested on: transplanted kidney; Nrf2; assay: PAS and Nrf2 immunohistochemistry of transplanted kidney five days after transplantation; assay type: in vivo, rat
From the text: All animals were sacrificed at five days from post-kidney transplantation. The administration of CHP to the transplant recipient group decreased tubular atrophy, tubulitis, endothelialitis, leukocyte infiltration, while increasing the level of antioxidative stress marker Nrf2 (Nuclear factor erythroid-2-related factor). These findings highlight the potential of CHP to exert protective (e.g., anti-inflammatory and antioxidative) effects in the transplantation rat model.

[5] = tested on: F344 donor kidney transplanted into LEWIS rats; assay: Survival of recipients in rat allogeneic kidney transplantation, minor MHC incompatible model; assay type: in vivo; conditions: CHP 40 mg/kg i.v. 1 hour before transplantation, then 40 mg/kg i.p. three times a week, n=4, untreated control 9 days (n=7)
Procedure: Donor surgery: After removing abdominal hair from donor rat under general anesthesia, the surgical area was disinfected and covered with surgical cloth. After a midline incision in the abdominal wall, one kidney was exposed, and 8 iu/kg of heparin was administered intravenously, followed by nephrectomy.
Table Surgery: Removed unnecessary tissue to anastomosis the artery, vein, and ureter of the extracted kidney to the blood vessel and ureter of the recipient, and covered and stored with gauze soaked in saline at 4° C.
Recipient surgery: After removal of abdominal hair of recipient rat under general anesthesia, the surgical area was disinfected and covered with surgical cloth. After a midline incision in the abdominal wall, the right kidney was exposed, the kidney was resected, and the donor renal artery and vein were anastomized end to side to the […]. The ureter of donor's kidney was sutured after incising the bladder. After confirming that the perfusion of the kidney was good (FIG. 1), the abdominal wall was closed, and the animal was placed on a blanket at 37° C. to recover.
As a minor MHC incompatible model, a kidney transplantation model F344 rats were used as donors and LEWIS rats were used as recipients. After resection of the recipients' right kidney on Day 0 (DO), the donors' kidney was transplanted into the recipients. […]

Compound: O=C1N[C@@H](Cc2cnc[nH]2)C(=O)N2CCC[C@@H]12 [CHP, Cyclo histidine-proline]
- blood flow to the transplanted kidney (ultrasound) [1]: blood flow to the kidney was smooth
- borderline changes suggestive of acute cell-mediated rejection and microvascular inflammation [2]: rapidly decreased
- focal glomerular necrosis and severe tubulointerstitial changes [2]: decrease
- function of the grafted organ ([3]; CHP-treated animals, entire period of survival, weekly measurements over 46 weeks): fully function
- serum creatinine ([3]; TPL+CHP group at 3 weeks after transplantation, syngenic group 0.71 mg/dL): 0.82 mg/dL
- serum creatinine levels ([3]; five days post-transplantation, TPL+CHP n=5, TPL without CHP 7.23±0.39, p<0.0001): 1.32 ± 0.13 mg/dL
- blood urea nitrogen (BUN) ([3]; five days post-transplantation, TPL+CHP n=5, TPL without CHP 193.5±8.54, p<0.0001): 41.98 ± 5.69 mg/dL
- level of antioxidative stress marker Nrf2 ([4]; Nrf2 immunohistochemistry): increasing
- tubular atrophy, tubulitis, endothelialitis, leukocyte infiltration ([4]; PAS staining): decreased
- mean survival day (SMD) [5]: 326 days
